From patent publication US20190292155A1, “THERAPEUTIC INHIBITORY COMPOUNDS” (LifeSci Pharmaceuticals, Inc., priority 2016, published 2019) come the findings set out here.

T1 sequence (P00746 26-253): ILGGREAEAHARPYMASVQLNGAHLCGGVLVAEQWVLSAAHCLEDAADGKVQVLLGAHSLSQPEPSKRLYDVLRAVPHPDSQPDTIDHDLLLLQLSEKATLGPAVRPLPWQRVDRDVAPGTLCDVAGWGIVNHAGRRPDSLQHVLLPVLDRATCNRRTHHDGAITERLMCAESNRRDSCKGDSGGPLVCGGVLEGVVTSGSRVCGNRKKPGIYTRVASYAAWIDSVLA

One experiment addresses T1, human complement factor D (Homo sapiens, UniProt P00746).
T1 construct: purchased R&D Systems 1824-SE
Put plainly: In vitro enzyme inhibition of human complement factor D (Z-Lys-SBzl/DTNB, A405). The experiment is classed as biochemical.
Settings: not given
The procedure: The ability of the compounds disclosed herein to inhibit human complement factor D inhibitory activity was quantified according to the 12-step protocol provided below. • 1. Prepare assay buffer: 50 mM Tris/HCl, pH 7.5, 1 M NaCl. • 2. […] Then dilute the serial concentrations of Nafamostat Mesilate 20-fold in assay buffer. • 3. […] 0.5% DMSO was in each well finally. • 4. […] Add 10 μl diluted test compounds duplicated into the 96-well plate. […] 0.5% DMSO was in each well finally. • 6. Dilute 20 mM substrate Z-Lys-SBzl (Bachem, Cat# M-1300) to 200 μM in assay buffer with 200 μM DTNB (Sigma, Catalog# D8130). • 7. […] Add 40 μl diluted Complement Factor D in the 96-well plate. • 8. Positive control well contains Complement Factor D without test compound. Negative control well contains neither Complement Factor D nor test compound. Using assay buffer, bring the total volume of all controls to 50 al. • 9. Pre-incubate the plate for 5 min at room temperature. • 10. Add 50 μl of diluted substrate/DTNB mixture into each well. […] For kinetic reading: Immediately start measuring absorbance (A405 nm) continuously and record data every 30 sec for 60 min. • 12. Data analysis • Inhibition activity of compound was evaluated by IC50. IC50 was calculated according the dose-response curve of compound fitted using GraphPadPrism with “log(inhibitor)-response (variable slope)” equation. • % inhibition was calculated by using following equation:
[formula] • Mean(NC): The average value of the negative control wells' A405 nm values. • Mean(PC): The average value of the positive control wells' A405 nm values.
Molecule `NC(=O)c1nn(CC(=O)N(CC(=O)NCc2cccc(Cl)c2F)C2CC2)c2cc(F)ccc12` [Example 84, 1-(2-((2-((3-chloro-2-fluorobenzyl)amino)-2-oxoethyl)(cyclopropyl)amino)-2-oxoethyl)-6-fluoro-1H-indazole-3-carboxamide] showed a half-maximal inhibitory concentration (IC50) of 0.1 to 1 µM.

With `NC(=O)c1ccc2c(C(N)=O)nn(CC(=O)N(CC(=O)NCc3cccc(Cl)c3F)C3CC3)c2c1` [Example 100, 1-(2-((2-((3-chloro-2-fluorobenzyl)amino)-2-oxoethyl)(cyclopropyl)amino)-2-oxoethyl)-1H-indazole-3,6-dicarboxamide], the IC50 was under 0.1 µM.

Molecule `NC(=O)c1nn(CC(=O)N(CC(=O)NCc2c(F)ccc(Cl)c2F)C2CC2)c2ccccc12` [Example 82, 1-(2-((2-((3-chloro-2,6-difluorobenzyl)amino)-2-oxoethyl)(cyclopropyl)amino)-2-oxoethyl)-1H-indazole-3-carboxamide] showed an IC50 of 0.1 to 1 µM.

Staying with this experiment, now noted: biochemical assay, substrate Z-Lys-SBzl; read-out: CFD IC50.
With `COC(=O)C(C)N(CC(=O)NCc1cccc(Cl)c1F)C(=O)Cn1nc(C(N)=O)c2ccccc21` (centres unmarked) [Example 59, methyl 2-(2-(3-carbamoyl-1H-indazol-1-yl)-N-(2-((3-chloro-2-fluorobenzyl)amino)-2-oxoethyl)acetamido)propanoate], the IC50 was in the range of 1 to 10 µM.

For the molecule `C[C@@H](C(=O)NCc1cccc(Cl)c1F)N(C)C(=O)Cn1nc(C(N)=O)c2ccccc21` [Example 3, (S)-1-(2-((1-((3-chloro-2-fluorobenzyl)amino)-1-oxopropan-2-yl)(methyl)amino)-2-oxoethyl)-1H-indazole-3-carboxamide], the IC50 was in the range of 1 to 10 µM.

With `NC(=O)c1nn(CC(=O)N(CC(=O)NCc2cccc(Cl)c2Cl)C2CC2)c2ccccc12` [Example 106, 1-(2-(cyclopropyl(2-((2,3-dichlorobenzyl)amino)-2-oxoethyl)amino)-2-oxoethyl)-1H-indazole-3-carboxamide], the half-inhibitory concentration (IC50) lay in the range of 0.1 to 1 µM.

`NC(=O)c1nn(CC(=O)N(CC(=O)NCc2cccc(C(F)(F)F)c2F)C2CC2)c2ccccc12` [Example 136, 1-(2-(cyclopropyl(2-((2-fluoro-3-(trifluoromethyl)benzyl)amino)-2-oxoethyl)amino)-2-oxoethyl)-1H-indazole-3-carboxamide]: the IC50 was 1 to 10 µM.

`NC(=O)c1nn(CC(=O)N(CC(=O)NCc2cccc(F)c2F)C2CC2)c2ccccc12` [Example 132, 1-(2-(cyclopropyl(2-((2,3-difluorobenzyl)amino)-2-oxoethyl)amino)-2-oxoethyl)-1H-indazole-3-carboxamide]: the IC50 was in the range of 0.1 to 1 µM.

Consider `NC(=O)c1nn(CC(=O)N(CC(=O)NCc2ccccc2F)C2CC2)c2ccccc12` [Example 115, 1-(2-(cyclopropyl(2-((2-fluorobenzyl)amino)-2-oxoethyl)amino)-2-oxoethyl)-1H-indazole-3-carboxamide], for which the IC50 was in the range of 1 to 10 µM.

In the case of `CC(O)c1nn(CC(=O)N(CC(=O)NCc2cccc(Cl)c2F)C2CC2)c2ccccc12` (centres unmarked) [Example 49, N-(2-((3-chloro-2-fluorobenzyl)amino)-2-oxoethyl)-N-cyclopropyl-2-(3-(1-hydroxyethyl)-1H-indazol-1-yl)acetamide], the IC50 is 1 to 10 µM.

For the molecule `NC(=O)c1nn(CC(=O)N(CC(=O)NCc2cccc(N)c2F)C2CC2)c2ccccc12` [Example 118, 1-(2-((2-((3-amino-2-fluorobenzyl)amino)-2-oxoethyl)(cyclopropyl)amino)-2-oxoethyl)-1H-indazole-3-carboxamide], the IC50 was in the range of 1 to 10 µM.

With `NC(=O)c1nn(CC(=O)N(CC(=O)NCc2ccc(N)cc2F)C2CC2)c2ccccc12` [Example 121, 1-(2-((2-((4-amino-2-fluorobenzyl)amino)-2-oxoethyl)(cyclopropyl)amino)-2-oxoethyl)-1H-indazole-3-carboxamide], the IC50 was in the range of 1 to 10 µM.

In the case of `CC(c1ccccc1)N(CC(=O)NCc1cccc(Cl)c1F)C(=O)Cn1nc(C(N)=O)c2ccccc21` (centres unmarked) [Example 65, 1-(2-((2-((3-chloro-2-fluorobenzyl)amino)-2-oxoethyl)(1-phenylethyl)amino)-2-oxoethyl)-1H-indazole-3-carboxamide], the IC50 is 0.1 to 1 µM.

As for `NCc1cc(Cl)c(F)c(CNC(=O)CN(C(=O)Cn2nc(C(N)=O)c3ccccc32)C2CC2)c1` [Example 101, 1-(2-((2-((5-(aminomethyl)-3-chloro-2-fluorobenzyl)amino)-2-oxoethyl)(cyclopropyl)amino)-2-oxoethyl)-1H-indazole-3-carboxamide], the concentration for half-maximal inhibition (IC50) fell in the range of 1 to 10 µM.

`N#Cc1cccc(CNC(=O)CN(C(=O)Cn2nc(C(N)=O)c3ccccc32)C2CC2)c1F` [Example 123, 1-(2-((2-((3-cyano-2-fluorobenzyl)amino)-2-oxoethyl)(cyclopropyl)amino)-2-oxoethyl)-1H-indazole-3-carboxamide]: the IC50 is 1 to 10 µM.

For the molecule `NC(=O)c1nn(CC(=O)N(CC(=O)NCc2cccc(Cl)c2F)C2CCOCC2)c2ccccc12` [Example 29, 1-(2-((2-((3-chloro-2-fluorobenzyl)amino)-2-oxoethyl)(tetrahydro-2H-pyran-4-yl)amino)-2-oxoethyl)-1H-indazole-3-carboxamide], the IC50 was in the range of 1 to 10 µM.

As to `NC(=O)c1nn(CC(=O)N(CC(=O)NCc2cccc(Cl)c2C(F)(F)F)C2CC2)c2ccccc12` [Example 135, 1-(2-((2-((3-chloro-2-(trifluoromethyl)benzyl)amino)-2-oxoethyl)(cyclopropyl)amino)-2-oxoethyl)-1H-indazole-3-carboxamide], the IC50 fell in the range of 1 to 10 µM.

Consider `NC(=O)c1nn(CC(=O)N(CC(=O)NCc2ccc(CO)c(Cl)c2F)C2CC2)c2ccccc12` [Example 99, 1-(2-((2-((3-chloro-2-fluoro-4-(hydroxymethyl)benzyl)amino)-2-oxoethyl)(cyclopropyl)amino)-2-oxoethyl)-1H-indazole-3-carboxamide], for which the IC50 was over 10 µM.

As for `NC(=O)c1nn(CC(=O)N(CCO)CC(=O)Nc2cccc(Cl)n2)c2ccccc12` [Example 13, 1-(2-((2-((6-chloropyridin-2-yl)amino)-2-oxoethyl)(2-hydroxyethyl)amino)-2-oxoethyl)-1H-indazole-3-carboxamide], the half-inhibitory concentration (IC50) was in the range of 1 to 10 µM.

For `N#Cc1ccc(CNC(=O)CN(C(=O)Cn2nc(C(N)=O)c3ccccc32)C2CC2)c(F)c1Cl` [Example 96, 1-(2-((2-((3-chloro-4-cyano-2-fluorobenzyl)amino)-2-oxoethyl)(cyclopropyl)amino)-2-oxoethyl)-1H-indazole-3-carboxamide], the IC50 lay in the range of 1 to 10 µM.

In the case of `NC(=O)c1nn(CC(=O)N(CC(=O)NCc2cccc(Br)c2F)C2CC2)c2ccccc12` [Example 120, 1-(2-((2-((3-bromo-2-fluorobenzyl)amino)-2-oxoethyl)(cyclopropyl)amino)-2-oxoethyl)-1H-indazole-3-carboxamide], the IC50 is under 0.1 µM.

Regarding `CCN(CC(=O)Nc1cccc(Cl)n1)C(=O)Cn1nc(C(N)=O)c2ccccc21` [Example 15, 1-(2-((2-((6-chloropyridin-2-yl)amino)-2-oxoethyl)(ethyl)amino)-2-oxoethyl)-1H-indazole-3-carboxamide], the IC50 lay within 0.1 to 1 µM.

With `NC(=O)c1nc(CC(=O)N(CC(=O)NCc2cccc(Cl)c2F)C2CC2)n2ccccc12` [Example 42, 3-(2-((2-((3-chloro-2-fluorobenzyl)amino)-2-oxoethyl)(cyclopropyl)amino)-2-oxoethyl)imidazo[1,5-a]pyridine-1-carboxamide], the IC50 lay in the range of 0.1 to 1 µM.

In general, IC50 refers to the concentration that gives 50% inhibition.
